According to patent publication US5907038A, “Azepanes” (Hoffmann-La Roche Inc., priority 1995, dated 1999):
Where a name gives a salt, the structure may show the parent alone.

Key:
[1] = target: protein kinase C (PKC); test: Inhibition of protein kinase C (PKC) (isolated enzyme); assay type: biochemical; conditions: partially purified PKC from swine brain; histone H1 substrate; 32° C., 2 minutes; read-out: IC50 (Test Procedure A)
Protocol: A: Inhibition of protein kinase C (PKC) (isolated enzyme): Protein kinase C (PKC) activity is determined by measuring the transfer of ^32 P-labelled phosphate from ^32 P-g-ATP ([…]) to histone H1 ([…]) as the substrate. Partially purified PKC from swine brain is used as the enzyme source [DEAE chromatography according to the method of U. Kikkawa et al. (Methods Enzymol. 99, 288, 1983)]. Activation of the PKC is effected by phospholipid vesicle prepared by ultrasound treatment of a mixture of 0.05 ml of phosphatidylserine (10 mg/ml) and 0.005 ml of diolein (10 mg/ml) in 5 ml of Tris-HCl buffer (20 mM, pH 7.4). The test substances are used in dimethyl sulphoxide (DMSO)/buffer in the concentration range […]. The test is started by the addition of enzyme; after incubation at 32° C. for 2 minutes the reaction is stopped by the addition of 20% trichloroacetic acid (with 1% SDS and 1% sodium pyrophosphate). The precipitated radioactive histone protein is separated from excess ATP by filtration over nitrocellulose membranes and the radioactivity on the filter is measured in a scintillation counter. The inhibitory activity of the test substance is given as the micromolar concentration which is required to reduce the PKC activity by 50% ([…]).

[2] = target: cAMP-dependent protein kinase (PKA); test: Inhibition of cAMP-dependent protein kinase (PKA); assay type: biochemical; conditions: partially purified PKA from swine brain; histone H1 substrate; cyclic AMP activation; 32° C., 2 minutes; read-out: IC50 (Test Procedure B)
Protocol: B: Inhibition of cAMP-dependent protein kinase (PKA): PKA activity is determined by measuring the transfer of ^32 P-labelled phosphate from ^32 P-g-ATP ([…]) to histone H1 ([…]) as the substrate. Partially purified PKA from swine brain is used as the enzyme source [DEAE chromatography according to the method of U. Kikkawa et al. (Methods Enzymol. 99, 288, 1983)]. Activation of the PKA is effected by cyclic AMP (2 mM) in Tris-HCl buffer (20 mM, pH 7.4). The test substances are used in dimethyl sulfoxide (DMSO)/buffer in the concentration range […]. The test is started by the addition of enzyme; after incubation at 32° C. for 2 minutes the reaction is stopped by the addition of 20% trichloroacetic acid (with 1% SDS and 1% sodium pyrophosphate). The precipitated radioactive histone protein is separated from excess ATP by filtration over nitrocellulose membranes and the radioactivity on the filter is measured in a scintillation counter. The inhibitory activity of the test substance is given as the micromolar concentration which is required to reduce the PKA activity by 50% ([…]).

[3] = tested on: Mouse Hair Follicle; test: Cell proliferation in cultured mouse hair follicles (3H-thymidine incorporation, DNA synthesis); assay type: cell-based, mouse (CD-1); conditions: for Emax: 3H-thymidine incorporation as percentage of control, whisker follicles of 4-day-old CD-1 mice, read-out: Mouse Hair Follicle DNA Synthesis Maximal Stimulation; for EC50: concentration giving 50% of the maximal stimulation of DNA synthesis
Protocol: C: Cell proliferation in cultured mouse hair follicles Mouse whisker follicles were isolated and cultured according to the method described by Buhl et al., J. Invest. Dermatol. 92, 315-320 (1989). Whisker pads were removed from 4-day-old CD-1 mice and vibrissae were carefully separated from the surrounding tissue with forceps under a dissecting microscope. Four hair follicles were incubated at 37° C. in 2 cm^2 wells in 1 ml of M199 medium containing 20% fetal bovine serum, in the presence or absence of test compound at varying concentrations. Each treatment group consisted of four wells. After 1 day of culture. ^3 H-thymidine was added to the wells to a final concentration of 5 μCi/ml and the follicles were incubated for a further three days. The follicles were then washed with phosphate-buffered saline and incorporated radioactivity was solubilized by addition of 0.5 ml of 1.0M NaOH and incubation for 18 h at 37° C. An aliquot of the alkali extracted was taken for measurement of radioactivity and results were expressed as dpm/follicle. Calculation of maximal stimulation and ED50 values The hair follicle ^3 H-thymidine incorporation values (dpm/follicle), obtained as described above, were then expressed as a percentage of control levels as follows: % control DNA synthesis for test compound=((treatment dpm/follicle)/(control dpm/follicle))×100 The dose-response relationship for each compound was then used to determine: 1) the maximal stimulation of DNA synthesis obtained for that compound, expressed as a percentage of control levels, and 2) the ED50 value, or the concentration (μM) of compound that gave rise to 50% of the maximal stimulation of DNA synthesis.

`O=C(N[C@@H]1CNCCC[C@H]1OC(=O)c1ccc(O)c(O)c1)c1ccc(O)cc1` [I/15, 3,4-Dihydroxy-benzoic acid (3R,4R)-3-(4-hydroxy-benzoylamino)-azepan-4-yl ester trifluoroacetate (1:1)] was tested, and the IC50 [1] was 8.8 µM and the IC50 [2] was 0.07 µM.
`COc1cc2c(O)cccc2cc1C(=O)O[C@@H]1CCCNC[C@H]1NC(=O)c1ccc(O)cc1` [I/19, 5-Hydroxy-3-methoxy-naphthalene-2-carboxylic acid (3R,4R)-3-(4-hydroxy-benzoylamino)-azepan-4-yl ester trifluoroacetate (1:1)] showed an IC50 [1] of 24 µM, an IC50 [2] of 0.041 µM and an Emax [3] of 371 ± 50%. It also gave an EC50 [3] of 30 µM.
Compound `CN(C(=O)c1ccccc1O)c1ccc(C(=O)O[C@@H]2CCCNC[C@H]2NC(=O)c2ccc(O)cc2)cc1` [I/25, 4-[(2-Hydroxy-benzoyl)-methyl-amino]-benzoic acid (3R,4R)-3-(4-hydroxy-benzoylamino)-azepan-4-yl ester trifluoroacetate (1:1)] has an IC50 [1] of 26 µM and an IC50 [2] of 1.9 µM.
Compound `O=C(N[C@@H]1CNCCC[C@H]1OC(=O)c1ccc(S(=O)(=O)Oc2ccccc2O)cc1)c1ccc(O)cc1` [I/28, 4-(2-Hydroxy-phenoxysulfonyl)-benzoic acid (3R,4R)-3-(4-hydroxy-benzoylamino)-azepan-4-yl ester hydrochloride (1:1)] has an Emax [3] of 349 ± 25% and an EC50 [3] of 40 µM.
`O=C(N[C@@H]1CNCCC[C@H]1OC(=O)c1ccc(O)cc1)c1ccc(OC(=O)c2c(O)cccc2O)cc1` [II/1, 4-Hydroxy-benzoic acid (3R,4R)-3-[4-(2,6-dihydroxy-benzoyloxy)-benzoylamino]-azepan-4-yl ester trifluoroacetate (1:1)] was tested, and the IC50 [1] was 30 µM, the IC50 [2] was 0.038 µM and the Emax [3] was 468 ± 26%. The EC50 [3] was 10 µM.
Work on `O=C(N[C@@H]1CNCCC[C@H]1OC(=O)c1ccc(O)cc1)c1ccc(O)cc1` [III/1, 4-Hydroxy-benzoic acid (3R,4R)-3-(4-hydroxy-benzoylamino)-azepan-4-yl ester hydrochloride (1:1)] yielded an IC50 [1] of 10 µM, an IC50 [2] of 0.026 µM and an Emax [3] of 534 ± 52%. For the same compound, the EC50 [3] was 5 µM.
